Assay results published in ChEMBL document CHEMBL5303573, “Mapping human microbiome drug metabolism by gut bacteria and their genes” (Nature, 2019).

Assays:
[1] = The drug is tested on Eubacterium rectale strain: ATCC33656 for biotransformation. The drug concentrations were measured before and after a 12-h incubation by liquid-chromatography-coupled mass spectrometry (LC–MS); settings: agathobacter rectalis, 2 µM
[2] = limosilactobacillus reuteri cf48-3a, 12 h, 2 µM
Description: The drug is tested on Lactobacillus reuteri CF48-3A strain: BEI HM-102 for biotransformation. The drug concentrations were measured before and after a 12-h incubation by liquid-chromatography-coupled mass spectrometry (LC–MS)

[3] = The drug is tested on Edwardsiella tarda strain: ATCC23685 for biotransformation. The drug concentrations were measured before and after a 12-h incubation by liquid-chromatography-coupled mass spectrometry (LC–MS); settings: 2 µM
[4] = The drug is tested on Bifidobacterium breve strain: DSM20213 for biotransformation. The drug concentrations were measured before and after a 12-h incubation by liquid-chromatography-coupled mass spectrometry (LC–MS); settings: 2 µM
[5] = The drug is tested on Clostridium asparagiforme strain: DSM15981 for biotransformation. The drug concentrations were measured before and after a 12-h incubation by liquid-chromatography-coupled mass spectrometry (LC–MS); type: ADME; parameters: dose 2 uM, timepoint 0 vs 12 hours; settings: enterocloster asparagiformis, 2 µM
[6] = bacteroides fragilis, 12 h, 2 µM
Description: The drug is tested on Bacteroides fragilis strain: NCTC 9343 for biotransformation. The drug concentrations were measured before and after a 12-h incubation by liquid-chromatography-coupled mass spectrometry (LC–MS)

[7] = The drug is tested on Bacteroides sp. WH2 strain: WH2 for biotransformation. The drug concentrations were measured before and after a 12-h incubation by liquid-chromatography-coupled mass spectrometry (LC–MS); settings: bacteroides sp. wh2, 12 h, 2 µM
[8] = The drug is tested on Bacteroides fragilis strain: HMW615 for biotransformation. The drug concentrations were measured before and after a 12-h incubation by liquid-chromatography-coupled mass spectrometry (LC–MS); settings: 2 µM
[9] = The drug is tested on Bacteroides uniformis strain: ATCC8492 for biotransformation. The drug concentrations were measured before and after a 12-h incubation by liquid-chromatography-coupled mass spectrometry (LC–MS); settings: 2 µM
[10] = The drug is tested on Odoribacter splanchnicus strain: fecal isolate for biotransformation. The drug concentrations were measured before and after a 12-h incubation by liquid-chromatography-coupled mass spectrometry (LC–MS); settings: 2 µM
[11] = The drug is tested on Eubacterium hallii strain: DSM3353 for biotransformation. The drug concentrations were measured before and after a 12-h incubation by liquid-chromatography-coupled mass spectrometry (LC–MS); settings: anaerobutyricum hallii, 2 µM
[12] = The drug is tested on Clostridium symbiosum strain: ATCC14940 for biotransformation. The drug concentrations were measured before and after a 12-h incubation by liquid-chromatography-coupled mass spectrometry (LC–MS); settings: 2 µM
[13] = The drug is tested on Anaerococcus hydrogenalis strain: DSM7454 for biotransformation. The drug concentrations were measured before and after a 12-h incubation by liquid-chromatography-coupled mass spectrometry (LC–MS); settings: 2 µM
[14] = The drug is tested on Enterococcus faecalis strain: V583 for biotransformation. The drug concentrations were measured before and after a 12-h incubation by liquid-chromatography-coupled mass spectrometry (LC–MS); settings: 2 µM
[15] = The drug is tested on Escherichia coli strain: BW25113 for biotransformation. The drug concentrations were measured before and after a 12-h incubation by liquid-chromatography-coupled mass spectrometry (LC–MS); settings: 2 µM
[16] = The drug is tested on Enterobacter cancerogenus strain: ATCC35316 for biotransformation. The drug concentrations were measured before and after a 12-h incubation by liquid-chromatography-coupled mass spectrometry (LC–MS); settings: 2 µM
[17] = parabacteroides distasonis, 12 h, 2 µM
Description: The drug is tested on Parabacteroides distasonis strain: ATCC8503 for biotransformation. The drug concentrations were measured before and after a 12-h incubation by liquid-chromatography-coupled mass spectrometry (LC–MS)

[18] = The drug is tested on Bacteroides coprophilus strain: DSM18228 for biotransformation. The drug concentrations were measured before and after a 12-h incubation by liquid-chromatography-coupled mass spectrometry (LC–MS); settings: 2 µM
[19] = The drug is tested on Bacteroides dorei strain: DSM17855 for biotransformation. The drug concentrations were measured before and after a 12-h incubation by liquid-chromatography-coupled mass spectrometry (LC–MS); settings: phocaeicola dorei, 2 µM
[20] = bacteroides eggerthii, 12 h, 2 µM
Description: The drug is tested on Bacteroides eggerthii strain: DSM20697 for biotransformation. The drug concentrations were measured before and after a 12-h incubation by liquid-chromatography-coupled mass spectrometry (LC–MS)

Measured: Bacterial Biotransformation

COc1ccc(C(CN(C)C)C2(O)CCCCC2)cc1 (stereo not given) [VENLAFAXINE]
Compound NOT metabolized: [1] | [2] | [3] | [4] | [5] | [6] | [7] | [8] | [9] | [10] | [11] | [12] | [13] | [14] | [15] | [16] | [17] | [18] | [19] | [20]
